# Assay results taken from patent US20240239811A1, “5-(5-(PIPERIDIN-4-YL)THIENO[3,2-C]PYRAZOL-2-YL]INDAZOLE DERIVATIVES AND RELATED COMPOUNDS AS MODULATORS FOR SPLICING NUCLEIC ACIDS AND FOR THE T” (REMIX THERAPEUTICS INC., priority 2020, published 2024).
# Legend:
# Type in all cases: cell-based
# HTT mRNA = experiment: Splicing assay (RT-qPCR) monitoring HTT splice variants, canonical (CJ) and alternative (AJ) junction; conditions: 50% response, A673 or K562 cell line, 24 hours; for IC50: decrease in CJ mRNA; for AC50: increase in AJ mRNA
# How it was run: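 A673 or K562 cells were treated 24 h with an 11-point 3-fold dilution series (top 10 uM, ≤0.25% DMSO) at 37 °C. HTT canonical- and alternative-junction mRNAs were quantified in lysates by one-step RT-qPCR. Values were normalized to PPIA (A673) or GAPDH/GUSB (K562).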
# HTT CJ mRNA = experiment: Gene panel canonical junction qPCR assay, HTT; conditions: Table 6, decrease in CJ mRNA, read-out: HTT IC50 (decrease in CJ mRNA levels)
# How it was run: (§1)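 A673 or K562 cells treated 24 h at 37° C with 11-point 3-fold dilutions, top 10 uM, DMSO ≤0.25%. CJ mRNA quantified by RT-qPCR with exon-junction-spanning probeset, ΔΔCt vs housekeeping gene (GAPDH, GUSB or PPIA) and DMSO control. IC50 from 4-parameter fit of percentage CJ decrease.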
# SMN2 CJ mRNA = experiment: Gene panel canonical junction qPCR assay, SMN2; conditions: Table 6, decrease in CJ mRNA, read-out: SMN2 IC50 (decrease in CJ mRNA levels)
# How it was run: as §1
# Target C CJ mRNA = experiment: Gene panel canonical junction qPCR assay, Target C; conditions: Table 6, decrease in CJ mRNA, read-out: Target C IC50 (decrease in CJ mRNA levels)
# How it was run: as §1
SMILES,IC50 (HTT mRNA) [nM],IC50 (HTT CJ mRNA) [nM],IC50 (SMN2 CJ mRNA) [nM],IC50 (Target C CJ mRNA) [nM],AC50 (HTT mRNA) [nM]
Cn1cc2cc(-c3cc4cn(C5CCNCC5)nc4s3)c(O)c(F)c2n1 [Compound 215],100 to 1000,100 to 1000,< 100,100 to 1000,100 to 1000
Cc1cn2cc(-c3cc4cn(C5CCNCC5)nc4s3)cc(C)c2n1 [Compound 216],< 100,< 100,< 100,100 to 1000,< 100
COc1c(-c2cc3cn(C4CCNCC4)nc3s2)cc2cn(C)nc2c1F [Compound 218],< 100,< 100,< 100,100 to 1000,100 to 1000
"COc1c(-c2cc3cn(C4CCNCC4)nc3s2)nn2cc(C)nc(C)c12 [Compound 219, 4-(5-{3-methoxy-4,6-dimethylpyrazolo[1,5-a]pyrazin-2-yl}thieno[2,3-c]pyrazol-2-yl) piperidine]",> 10000,> 10000,1000 to 10000,> 10000,> 10000
Cn1cc2cc(-n3cc4cc(C5CCNCC5)sc4n3)c(O)cc2n1 [Compound 220],1000 to 10000,1000 to 10000,1000 to 10000,1000 to 10000,1000 to 10000
Cc1c(O)c(-c2cc3cn(C4CCNCC4)nc3s2)cc2cn(C)nc12 [Compound 221],> 10000,> 10000,> 10000,> 10000,> 10000
Cc1cn2nc(-c3cc4cn(C5CCNCC5)nc4s3)cc2c(C)n1 [Compound 222],1000 to 10000,1000 to 10000,< 100,1000 to 10000,1000 to 10000
Cc1cn2cc(-c3cc4cn(C5CCNCC5)nc4s3)ncc2n1 [Compound 223],1000 to 10000,1000 to 10000,100 to 1000,1000 to 10000,1000 to 10000

# More lines, main results first:
IC50 (HTT mRNA) [nM],IC50 (HTT CJ mRNA) [nM],IC50 (SMN2 CJ mRNA) [nM],IC50 (Target C CJ mRNA) [nM],SMILES,AC50 (HTT mRNA) [nM]
> 10000,> 10000,> 10000,> 10000,COc1c(-c2cc3cn(C4CCNCC4)nc3s2)cc(F)c2nn(C)cc12 [Compound 224],> 10000
< 100,< 100,< 100,100 to 1000,Cc1cc(-c2cc3cn(C4CCNCC4)nc3s2)cc2cn(C)nc12 [Compound 225],< 100
< 100,< 100,< 100,100 to 1000,Cc1cn2cc(-c3cc4cn(C5CCNCC5)nc4s3)cc(Cl)c2n1 [Compound 226],< 100
1000 to 10000,1000 to 10000,100 to 1000,> 10000,"Cn1cc2c(O)c(-c3nc4sc(C5CCNCC5)cc4s3)ccc2n1 [Compound 231, 2-methyl-5-[5-(piperidin-4-yl)thieno[2,3-d][1,3]thiazol-2-yl]indazol-4-ol]",1000 to 10000
1000 to 10000,1000 to 10000,< 100,1000 to 10000,"Cn1cc2cc(-c3nc4sc(N5CCC6(CCN6)C5)cc4s3)cc(F)c2n1 (stereo not shown) [Compound 233, 5-(5-{1,6-diazaspiro[3.4]octan-6-yl}thieno[2,3-d][1,3]thiazol-2-yl)-7-fluoro-2-methylindazole]",1000 to 10000
1000 to 10000,1000 to 10000,100 to 1000,1000 to 10000,"Cc1cn2nc(-c3nc4sc(C5CNC5)cc4s3)cc(C)c2n1 [Compound 235, 3-(2-{2,8-dimethylimidazo[1,2-b]pyridazin-6-yl}thieno[2,3-d] [1,3]thiazol-5-yl) azetidine]",1000 to 10000
100 to 1000,100 to 1000,100 to 1000,1000 to 10000,"Cn1cc2cc(-c3nc4sc(C5(O)CCNCC5)cc4s3)cc(F)c2n1 [Compound 236, 4-[2-(7-fluoro-2-methylindazol-5-yl)thieno[2,3-d] [1,3]thiazol-5-yl] piperidin-4-ol]",1000 to 10000
> 10000,> 10000,> 10000,> 10000,"COc1c(-c2nc3sc(C4CCNCC4)cc3s2)cc(F)c2nn(C)cc12 [Compound 237, 7-fluoro-4-methoxy-2-methyl-5-[5-(piperidin-4-yl)thieno[2,3-d][1,3]thiazol-2-yl]indazole]",> 10000
< 100,< 100,< 100,100 to 1000,"Cc1cc(-c2nc3sc(C4CCNCC4)cc3s2)cc2cn(C)nc12 [Compound 238, 2,7-dimethyl-5-[5-(piperidin-4-yl)thieno[2,3-d][1,3]thiazol-2-yl]indazole]",< 100
